In ChEMBL document CHEMBL3885881, “DrugMatrix”:

Organism: Rattus norvegicus
Assay: DrugMatrix - Regimen: Daily Repeat
Assay type: toxicity, organism-based, Sprague-Dawley
Parameters: regimen Daily Repeat, gender Male, age 6-8 weeks
Details: in vivo, po, route oral GAVAGE, vehicle .5 % CMC; for BASOPHIL / EOSINOPHIL / ERYTHROCYTE COUNT / HEMATOCRIT / HEMOGLOBIN / LEUKOCYTE COUNT / LYMPHOCYTE / MEAN CORPUSCULAR HEMOGLOBIN / MEAN CORPUSCULAR HEMOGLOBIN CONCENTRATION / MEAN CORPUSCULAR VOLUME / MONOCYTE / NEUTROPHIL / PLATELET COUNT: tissue Blood; for ALANINE AMINOTRANSFERASE / ALBUMIN / ALKALINE PHOSPHATASE / ASPARTATE AMINOTRANSFERASE / BLOOD UREA NITROGEN / CHLORIDE / CHOLESTEROL / CREATINE PHOSPHOKINASE / CREATININE / GLUCOSE / PHOSPHORUS / POTASSIUM / SODIUM / TOTAL PROTEIN: tissue Plasma
[1] = 0 mg/kg, 72 h, dose level Control, time 3 day
[2] = 0 mg/kg, 120 h, dose level Control, time 5 day
[3] = 80 mg/kg, 72 h, dose level Low, time 3 day
[4] = 80 mg/kg, 120 h, dose level Low, time 5 day
[5] = 2000 mg/kg, 72 h, dose level High, time 3 day
[6] = 2000 mg/kg, 120 h, dose level High, time 5 day

CN(C/C=C/C#CC(C)(C)C)Cc1cccc2ccccc12 [TERBINAFINE]
BASOPHIL [1]: 0%
EOSINOPHIL [1]: 0.4%
ERYTHROCYTE COUNT [1]: 6.43 x10E6/uL
HEMATOCRIT [1]: 37.36%
HEMOGLOBIN [1]: 13.98 G/DL
LEUKOCYTE COUNT [1]: 13 x10E3/uL
LYMPHOCYTE [1]: 81.4%
MEAN CORPUSCULAR HEMOGLOBIN [1]: 21.9 pg
MEAN CORPUSCULAR HEMOGLOBIN CONCENTRATION [1]: 37.4 G/DL
MEAN CORPUSCULAR VOLUME [1]: 58.52 fL
MONOCYTE [1]: 0.4%
NEUTROPHIL [1]: 18%
PLATELET COUNT [1]: 1386 x10E3/uL
ALANINE AMINOTRANSFERASE [1]: 39.33 u/L
ALBUMIN [1]: 3.57 G/DL
ALKALINE PHOSPHATASE [1]: 283.83 u/L
ASPARTATE AMINOTRANSFERASE [1]: 69.5 u/L
BLOOD UREA NITROGEN [1]: 14.83 mg/dL
CHLORIDE [1]: 107.33 MEQ/L
CHOLESTEROL [1]: 75.17 mg/dL
CREATINE PHOSPHOKINASE [1]: 107.67 u/L
CREATININE [1]: 0.48 mg/dL
GLUCOSE [1]: 172.5 mg/dL
PHOSPHORUS [1]: 10.48 mg/dL
POTASSIUM [1]: 6.9 MEQ/L
SODIUM [1]: 152.33 MEQ/L
TOTAL PROTEIN [1]: 5.9 G/DL
BASOPHIL [2]: 0%
EOSINOPHIL [2]: 0.4%
ERYTHROCYTE COUNT [2]: 6.96 x10E6/uL
HEMATOCRIT [2]: 41.12%
HEMOGLOBIN [2]: 15.24 G/DL
LEUKOCYTE COUNT [2]: 11.06 x10E3/uL
LYMPHOCYTE [2]: 88.6%
MEAN CORPUSCULAR HEMOGLOBIN [2]: 21.96 pg
MEAN CORPUSCULAR HEMOGLOBIN CONCENTRATION [2]: 37.1 G/DL
MEAN CORPUSCULAR VOLUME [2]: 59.12 fL
MONOCYTE [2]: 0.2%
NEUTROPHIL [2]: 10.8%
PLATELET COUNT [2]: 1155.8 x10E3/uL
ALANINE AMINOTRANSFERASE [2]: 36.33 u/L
ALBUMIN [2]: 3.72 G/DL
ALKALINE PHOSPHATASE [2]: 340.33 u/L
ASPARTATE AMINOTRANSFERASE [2]: 68.33 u/L
BLOOD UREA NITROGEN [2]: 15 mg/dL
CHLORIDE [2]: 108.17 MEQ/L
CHOLESTEROL [2]: 74.67 mg/dL
CREATINE PHOSPHOKINASE [2]: 110.67 u/L
CREATININE [2]: 0.47 mg/dL
GLUCOSE [2]: 171.33 mg/dL
PHOSPHORUS [2]: 10.05 mg/dL
POTASSIUM [2]: 6.7 MEQ/L
SODIUM [2]: 155.5 MEQ/L
TOTAL PROTEIN [2]: 6.33 G/DL
BASOPHIL [3]: 0%
EOSINOPHIL [3]: 0.33%
ERYTHROCYTE COUNT [3]: 6.8 x10E6/uL
HEMATOCRIT [3]: 41.03%
HEMOGLOBIN [3]: 15.13 G/DL
LEUKOCYTE COUNT [3]: 14.73 x10E3/uL
LYMPHOCYTE [3]: 86.67%
MEAN CORPUSCULAR HEMOGLOBIN [3]: 22.37 pg
MEAN CORPUSCULAR HEMOGLOBIN CONCENTRATION [3]: 36.9 G/DL
MEAN CORPUSCULAR VOLUME [3]: 60.57 fL
MONOCYTE [3]: 0.33%
NEUTROPHIL [3]: 12.67%
PLATELET COUNT [3]: 1306.67 x10E3/uL
ALANINE AMINOTRANSFERASE [3]: 36 u/L
ALBUMIN [3]: 3.5 G/DL
ALKALINE PHOSPHATASE [3]: 332 u/L
ASPARTATE AMINOTRANSFERASE [3]: 55.67 u/L
BLOOD UREA NITROGEN [3]: 12.67 mg/dL
CHLORIDE [3]: 110.33 MEQ/L
CHOLESTEROL [3]: 64 mg/dL
CREATINE PHOSPHOKINASE [3]: 119.33 u/L
CREATININE [3]: 0.57 mg/dL
GLUCOSE [3]: 180.67 mg/dL
PHOSPHORUS [3]: 10.6 mg/dL
POTASSIUM [3]: 7.07 MEQ/L
SODIUM [3]: 155.67 MEQ/L
TOTAL PROTEIN [3]: 5.87 G/DL
BASOPHIL [4]: 0%
EOSINOPHIL [4]: 0.33%
ERYTHROCYTE COUNT [4]: 5.98 x10E6/uL
HEMATOCRIT [4]: 35.23%
HEMOGLOBIN [4]: 12.83 G/DL
LEUKOCYTE COUNT [4]: 13.7 x10E3/uL
LYMPHOCYTE [4]: 85.33%
MEAN CORPUSCULAR HEMOGLOBIN [4]: 21.47 pg
MEAN CORPUSCULAR HEMOGLOBIN CONCENTRATION [4]: 36.4 G/DL
MEAN CORPUSCULAR VOLUME [4]: 58.97 fL
MONOCYTE [4]: 0%
NEUTROPHIL [4]: 14%
PLATELET COUNT [4]: 1155 x10E3/uL
ALANINE AMINOTRANSFERASE [4]: 39 u/L
ALBUMIN [4]: 3.43 G/DL
ALKALINE PHOSPHATASE [4]: 357.33 u/L
ASPARTATE AMINOTRANSFERASE [4]: 60.33 u/L
BLOOD UREA NITROGEN [4]: 13.33 mg/dL
CHLORIDE [4]: 106.67 MEQ/L
CHOLESTEROL [4]: 67.33 mg/dL
CREATINE PHOSPHOKINASE [4]: 121.67 u/L
CREATININE [4]: 0.47 mg/dL
GLUCOSE [4]: 151.33 mg/dL
PHOSPHORUS [4]: 9.77 mg/dL
POTASSIUM [4]: 6.7 MEQ/L
SODIUM [4]: 151.33 MEQ/L
TOTAL PROTEIN [4]: 5.73 G/DL
BASOPHIL [5]: 0%
EOSINOPHIL [5]: 0%
ERYTHROCYTE COUNT [5]: 6.96 x10E6/uL
HEMATOCRIT [5]: 41.1%
HEMOGLOBIN [5]: 15.27 G/DL
LEUKOCYTE COUNT [5]: 8.67 x10E3/uL
LYMPHOCYTE [5]: 76.67%
MEAN CORPUSCULAR HEMOGLOBIN [5]: 21.9 pg
MEAN CORPUSCULAR HEMOGLOBIN CONCENTRATION [5]: 37.13 G/DL
MEAN CORPUSCULAR VOLUME [5]: 58.93 fL
MONOCYTE [5]: 0%
NEUTROPHIL [5]: 23.33%
PLATELET COUNT [5]: 1235.33 x10E3/uL
ALANINE AMINOTRANSFERASE [5]: 55.67 u/L
ALBUMIN [5]: 3.63 G/DL
ALKALINE PHOSPHATASE [5]: 246.33 u/L
ASPARTATE AMINOTRANSFERASE [5]: 120.33 u/L
BLOOD UREA NITROGEN [5]: 11.33 mg/dL
CHLORIDE [5]: 108.67 MEQ/L
CHOLESTEROL [5]: 105.33 mg/dL
CREATINE PHOSPHOKINASE [5]: 122 u/L
CREATININE [5]: 0.5 mg/dL
GLUCOSE [5]: 140.67 mg/dL
PHOSPHORUS [5]: 10.4 mg/dL
POTASSIUM [5]: 6.3 MEQ/L
SODIUM [5]: 156.33 MEQ/L
TOTAL PROTEIN [5]: 5.9 G/DL
BASOPHIL [6]: 0%
EOSINOPHIL [6]: 0.33%
ERYTHROCYTE COUNT [6]: 6.14 x10E6/uL
HEMATOCRIT [6]: 37.1%
HEMOGLOBIN [6]: 13.7 G/DL
LEUKOCYTE COUNT [6]: 6.8 x10E3/uL
LYMPHOCYTE [6]: 87.33%
MEAN CORPUSCULAR HEMOGLOBIN [6]: 22.37 pg
MEAN CORPUSCULAR HEMOGLOBIN CONCENTRATION [6]: 36.9 G/DL
MEAN CORPUSCULAR VOLUME [6]: 60.57 fL
MONOCYTE [6]: 0%
NEUTROPHIL [6]: 12.33%
PLATELET COUNT [6]: 1319.67 x10E3/uL
ALANINE AMINOTRANSFERASE [6]: 37.67 u/L
ALBUMIN [6]: 3.6 G/DL
ALKALINE PHOSPHATASE [6]: 327.67 u/L
ASPARTATE AMINOTRANSFERASE [6]: 56 u/L
BLOOD UREA NITROGEN [6]: 12 mg/dL
CHLORIDE [6]: 106.33 MEQ/L
CHOLESTEROL [6]: 84.67 mg/dL
CREATINE PHOSPHOKINASE [6]: 117.33 u/L
CREATININE [6]: 0.53 mg/dL
GLUCOSE [6]: 141 mg/dL
PHOSPHORUS [6]: 10.63 mg/dL
POTASSIUM [6]: 6.4 MEQ/L
SODIUM [6]: 152 MEQ/L
TOTAL PROTEIN [6]: 5.73 G/DL
